Assay results from patent US9587225B2, “Low-molecular-compound for improving production, maintenance and proliferation of pluripotent stem cells, composition comprising the same, and culture method” (KOREA RESEARCH INSTITUTE OF BIOSCIENCE AND BIOTECHNOLOGY, priority 2012, dated 2017).

How the values were obtained:
[1] = target: T1, DNA methyl transferase 1 (DNMT1) (Homo sapiens, UniProt P26358); test: DNMT1 activity during reprogramming; format: cell-based; conditions: 10 days after induction of reprogramming, compared to untreated control (OSKM alone) (FIG. 20)
T1 construct: endogenous in cells; host or cells: human skin (foreskin) fibroblasts (hFF, ATCC CRL-2097) transduced with OSKM retrovirus
T1 sequence (P26358 whole entry): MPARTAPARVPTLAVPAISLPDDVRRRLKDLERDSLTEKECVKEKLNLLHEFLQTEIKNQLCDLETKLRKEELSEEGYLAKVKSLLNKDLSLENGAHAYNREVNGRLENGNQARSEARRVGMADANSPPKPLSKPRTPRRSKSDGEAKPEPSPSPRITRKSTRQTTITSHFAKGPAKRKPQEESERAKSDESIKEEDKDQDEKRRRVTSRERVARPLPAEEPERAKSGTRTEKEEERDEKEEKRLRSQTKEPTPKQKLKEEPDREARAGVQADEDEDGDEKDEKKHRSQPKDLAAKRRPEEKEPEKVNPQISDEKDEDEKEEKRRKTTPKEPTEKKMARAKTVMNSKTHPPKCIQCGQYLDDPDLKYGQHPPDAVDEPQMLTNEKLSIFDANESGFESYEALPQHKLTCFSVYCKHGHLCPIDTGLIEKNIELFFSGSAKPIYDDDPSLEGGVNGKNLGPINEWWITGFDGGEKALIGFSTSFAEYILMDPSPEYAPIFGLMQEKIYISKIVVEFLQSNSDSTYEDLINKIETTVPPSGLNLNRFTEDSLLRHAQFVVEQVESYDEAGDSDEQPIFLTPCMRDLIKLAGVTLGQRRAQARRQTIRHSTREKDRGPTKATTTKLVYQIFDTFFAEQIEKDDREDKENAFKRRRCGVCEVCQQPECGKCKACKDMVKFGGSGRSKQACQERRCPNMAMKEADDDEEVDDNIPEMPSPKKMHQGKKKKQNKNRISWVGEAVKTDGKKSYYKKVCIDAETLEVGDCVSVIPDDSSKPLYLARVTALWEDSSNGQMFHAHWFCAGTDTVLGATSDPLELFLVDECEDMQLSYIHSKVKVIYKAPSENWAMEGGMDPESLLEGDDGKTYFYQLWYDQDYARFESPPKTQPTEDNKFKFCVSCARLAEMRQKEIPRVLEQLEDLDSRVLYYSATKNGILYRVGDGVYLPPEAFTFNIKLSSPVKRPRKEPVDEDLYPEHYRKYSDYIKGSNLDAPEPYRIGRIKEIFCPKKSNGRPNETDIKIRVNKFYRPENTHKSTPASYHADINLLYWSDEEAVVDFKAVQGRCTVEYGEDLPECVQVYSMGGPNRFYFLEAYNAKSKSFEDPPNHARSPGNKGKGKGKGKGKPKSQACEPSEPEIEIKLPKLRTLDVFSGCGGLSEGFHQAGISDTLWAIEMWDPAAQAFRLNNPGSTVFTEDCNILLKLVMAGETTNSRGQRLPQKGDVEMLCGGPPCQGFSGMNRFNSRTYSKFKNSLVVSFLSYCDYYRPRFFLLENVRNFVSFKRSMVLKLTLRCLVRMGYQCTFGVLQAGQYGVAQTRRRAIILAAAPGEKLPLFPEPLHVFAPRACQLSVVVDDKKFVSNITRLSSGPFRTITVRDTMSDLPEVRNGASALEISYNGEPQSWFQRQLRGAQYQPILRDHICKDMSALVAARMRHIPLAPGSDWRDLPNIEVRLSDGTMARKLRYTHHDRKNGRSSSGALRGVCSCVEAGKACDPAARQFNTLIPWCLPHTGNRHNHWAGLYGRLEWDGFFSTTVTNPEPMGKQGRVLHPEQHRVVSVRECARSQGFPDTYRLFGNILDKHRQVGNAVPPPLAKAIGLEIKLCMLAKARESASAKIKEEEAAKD
Excerpt: For comparison, the activity of DNMT1 in the absence of RSC-133 was set at 100%.
RSC133 regulates the activities of epigenetic regulators such as DNA methyltransferase (DNMT) and histone deacetylase (HDAC). At 10 days after induction of reprogramming by RSC133, the activity of DNMT1 was reduced by about 38% compared to that in an untreated control group (OSKM alone) (FIG. 20). Epigenetic chromatin remolding by DNA methylation and/or histone modification plays an important in a wide range of transcriptional regulation in the reprogramming process. […] The increased level of H3K9 histone acetylation (ace) is particularly associated with the restoration of pluripotency and reprogramming ability. It is known that DNA methylation by DNMT1 has a close connection with the change in chromatin status caused by HDAC activity.

human skin fibroblasts [2] = test: SA-β-gal senescence assay during reprogramming; format: cell-based; conditions: 10 days after induction of reprogramming, compared to untreated control (OSKM alone) (FIG. 17)
[3] = test system: human skin fibroblasts (hFFs); test: Reprogramming of human skin fibroblasts, AP-positive colony count; format: cell-based
[4] = test system: H9 human embryonic stem cells; test: Maintenance of undifferentiated state of hESC in unconditioned medium; format: cell-based
Procedure: It was observed that, when H9 human embryonic stem cells (hESs) were cultured in unconditioned medium (UM), the differentiation thereof was induced, but when the cells were cultured in UM containing RSC-133, the degree of induced differentiation was inhibited, and pluripotency was acquired again. The efficiency of acquisition of pluripotency was measured by calculating the number of colonies showing AP activity. The values shown on the graph are mean values. The data are expressed as mean±SD (n=3) (*P<0.01, **P<0.005, by t-test).
Human skin fibroblasts (hFFs) were used as a negative control group. H3 and GAPDH proteins were used as internal controls.
Human embryonic stem cell (hESC) H9 (NIH Code, WA09; WiCell Research Institute, Madison, Wis.) and reprogrammed stem cells (hiPSC) were generally cultured in hESC culture medium (composed of 80% DMEM/F12, 20% knockout serum replacement (KSR, Invitrogen, Carlsbad, Calif.), 1% non-essential amino acids (NEAR, Invitrogen), 1 mM L-glutamine (Invitrogen), 0.1 mM β-mercaptoethanol (Sigma, St. Louis, Mo.) and 6 ng/ml bFGF (basic fibroblast growth factor, Invitrogen)) on γ-irradiated MEFs (mouse embryonic fibroblasts). The cells were subcultured with 1 mg/ml collagenase IV (Invitrogen) at intervals of 5-6 days. Human newborn foreskin fibroblasts (hFF, ATCC, catalog number CRL-2097; American Type Culture Collection, Manassas, Va.) were cultured in DMEM containing 10% FBS (fetal bovine serum, Invitrogen), 1% non-essential amino acid, 1 mM L-glutamine and 0.1 mM β-mercaptoethanol.
When human embryonic stem cells (H9) are cultured in unconditioned medium (UM), their differentiation is induced. […] As a positive control group, embryonic stem cells cultured for 6 days in MEF-conditioned medium (CM) effective for maintenance of an undifferentiated state were used. The efficiency of maintenance of an undifferentiated state and inhibition of differentiation was determined by measuring the number of colonies showing AP activity (the lower panel of FIG. 28). […]

total HDAC enzymes = test: Activity of total HDAC enzymes during reprogramming; format: cell-based, human; conditions: during reprogramming (FIG. 19 left)
Procedure: The values shown on the graph are mean values. The data are expressed as mean±SD (n=3) (*P<0.01, **P<0.005, by t-test).
Next, whether the above-described results were results of the inhibition of HDAC enzyme by RSC-133 during reprogramming of human skin fibroblasts was examined. […] According to the experimental method shown in FIG. 21, the expression levels of HDAC-family proteins were measured, and as a result, it could be seen that the expression level of HDAC1 in the test group treated with RSC-133 was inhibited at 10 days after treatment with RSC-133 compared to that of the control group (the light panel of FIG. 19 and FIG. 21). It was reported that HDAC1 can occupy the Oct4, Sox2, Klf4 and c-Myc gene loci in embryonic stem cells and that the expression of pluripotency-specific marker genes in HDAC1-deleted embryonic stem cells is increased. Thus, it is believed that RSC-133 can inhibit the function of HDAC1 and increase the H3K9ace level to stimulate the reprogramming process.

human skin fibroblasts [5] = test: Cell growth (total number of cells) during reprogramming culture; format: cell-based
Excerpt: In still another example of the present invention, whether the novel compound RSC-133 has the effect of promoting the growth and proliferation of cells in a culture process for inducing reprogramming was examined by measuring the total number of cells at various time points (FIG. 11). […] In addition, a change in the proliferation of cells during a culture process for inducing reprogramming was examined by a BrdU assay.
FIG. 11 is a graph showing the effect of RSC-133 on cell growth during a reprogramming process. The results were obtained in the same manner as those in FIG. 10. The values shown on the graph are mean values. The data ate are expressed as mean±SD (n=3).
FIG. 12 is a graph showing the results of examining the effect of RSC-133 on the growth of human skin fibroblasts or human skin fibroblasts infected with a reprogramming factor (OSKM) virus. The values shown on the graph are mean values. The data are mean±SD (n=3).
In addition, the growth rate of cells is associated with the self-renewal ability of embryonic stem cells. Thus, whether the novel compound RSC-133 can promote cell growth during reprogramming was examined. As a result, it could be seen that when reprogramming was induced while the cells were treated with RSC-133, the growth rate of the cells increased by about 1.7 times compared to that of the control group (FIG. 11). […]

What does the source list for `NC(=O)c1cccc(NC(=O)/C=C/c2c[nH]c3ccccc23)c1` [RSC-133, 3-[3-(1H-indol-3-yl)-acrylamido]-benzamide]?
reduction of the activity of DNMT1 [1]: about 38%; decrease of the ratio of SA-β-gal-positive cells (human skin fibroblasts [2]): 37.23%; substitution for reprogramming factor c-Myc, compound alone ([3]; RSC-133 alone, AP-positive colonies (FIG. 5)): did not show the substituting effect; substitution for reprogramming factor c-Myc, in combination with sodium butyrate ([3]; RSC-133 in combination with sodium butyrate (NaB), compared to control group (FIG. 5)): substituted for c-Myc factor to increase the efficiency of reprogramming; efficiency of reprogramming, treatment in the initial stage ([3]; initial stage (including 5 days after viral infection), compared to other periods of equal length (FIG. 10)): significantly increased; induced differentiation and pluripotency of hESC in unconditioned medium (AP-positive colonies) ([4]; H9 cultured 6 days in UM supplemented with RSC-133 (FIG. 28)): the degree of induced differentiation was inhibited and pluripotency was re-acquired; expression of Oct4 and H3K9ace (Western blot) ([4]; H9 in UM containing RSC-133 vs CM (FIG. 29)): at levels similar to those in the human embryonic stem cells cultured in CM; expression of pluripotency-specific markers Oct4 and Tra1-81 (immunostaining) ([4]; H9 in UM supplemented with RSC-133 vs CM): expressed at levels similar to those of human embryonic stem cells cultured in CM; activity of total HDAC enzymes (total HDAC enzymes): slightly inhibited; growth of cells, reprogramming not induced (human skin fibroblasts [5]; human skin fibroblasts or OSKM-transfected fibroblasts, reprogramming not induced (FIG. 12)): increased the growth of the cells; increase of growth rate of the cells during reprogramming (human skin fibroblasts [5]; reprogramming induced, compared to control group (FIG. 11)): about 1.7 times
